| Structure (SMILES) | melting point [°C] |
| --- | --- |
| COP(=S)(OC)SCN1C(=O)c2ccccc2C1=O | 72 |
| O=[N+]([O-])c1ccc(CCO)cc1 | 63 |
| NC(=O)CC(N)=O | 169 |
| O=C1NC(=S)NC(=O)C1=NNc1ccc(Cl)cc1 | 300 |
| O=C1NC(=O)C(Cl)C(=O)N1 | 320 |
| CC(=O)OC1CC[C@@]2(C)C(CC[C@@H]3[C@@H]2CC[C@@]2(C)[C@H]3CC[C@]2(O)C#Cc2ccccc2)C1 (stereo partly drawn) | 170 to 171 |
| CCCC1(O)CCC2C3CCC4CC(OC(C)=O)CCC4(C)C3CCC21C (stereo not drawn) | 120 to 121 |
| CN(C)C(=O)Nc1ccc(Oc2ccc(Cl)cc2)cc1 | 151 |
| Nc1c(O)cccc1C(=O)O | 240 |
| CNC1=CC(=O)C2(C)CCC1C2(C)C (stereo not drawn) | 195 |
| NC(=NO)c1ccc(F)cc1 | 92 to 95 |
| Ic1cccc(I)c1I | 116 |
| O=C1C(=Cc2ccccc2)N=C(N2CCOCC2)N1c1ccccc1 | 235 |
| ClCCN(CCCl)c1ccc2ccccc2c1 | 55 |
| O=C(O)C(O)n1ccnc1 (stereo not drawn) | 275 |
| C=CC=CC#N | -60 |
| CCCOc1ccc2[nH]c(NC(=O)OC)nc2c1 | 230 |
| O=[N+]([O-])c1ccc(C2Nn3c(COc4ccccc4)nnc3S2)cc1 (stereo not drawn) | 184 |
| CC(=O)Nc1ccc(C(C)=O)c(C)c1 | 139 |
| O=C1c2ccccc2C(=O)C1(O)C1(O)C(=O)c2ccccc2C1=O | 252 |
| ClC1=C(Cl)C(Cl)(Cl)C(Cl)(Cl)C1(Cl)Cl | 40 |
| Cc1cc(C(=O)O)cc(C)c1OCc1ccccc1 | 159 |

| Structure (SMILES) | melting point [°C] |
| --- | --- |
| Nc1cc(Br)cc2cc[nH]c12 | 105 |
| COc1cc2nnc(/C=C/C(C)=O)c(-c3ccc(C)o3)c2cc1OC | 209 to 210 |
| O=C(NCSCc1ccccc1)c1ccccc1 | 79 to 80 |
| CC(C)(C)NC(=O)NN | 119 to 120 |
| O=C(O)COc1nc(Cl)c(Cl)cc1Cl | 150 |
| CC(=O)OC1CC[C@H]2[C@@H]3CC[C@@H]4C(Br)C(=O)CC[C@]4(C)[C@H]3CC[C@]12C (stereo partly drawn) | 181 |
| O=[N+]([O-])c1cccnc1N1CCN(CCO)CC1 | 82 to 83 |
| Cc1ccc(NC(=O)N(C)C)cc1Cl | 148 |
| CCCC(=O)c1ccccc1 | 12 |
| CCCCCCNC(=O)COC(=O)c1ccccc1 | 130 |
| CC=CCCC=CC | -76 |
| Cc1ccc(CC=O)cc1 | 40 |
| O=C1/C(=C/c2ccc([N+](=O)[O-])cc2)SC(=S)N1CN1CCOCC1 | 169 |
| CNC[C@H](O)[C@@H](O)[C@H](O)[C@H](O)CO | 128 |
| O=C(O)CCOc1ccc(F)cc1 | 84 to 86 |
| O=C(N=C=S)c1cccc([N+](=O)[O-])c1 | 93 to 95 |
| Nc1ccc(Nc2ccccc2)cc1 | 74 |
| COC(=O)c1ccc(O)c(Cl)c1 | 107 |
| CCN(CC)C(=O)CC(C)=O | -73 |
| CC(O)(P(=O)(O)O)P(=O)(O)O | 199 |
| NNc1cc(C(F)(F)F)cc(C(F)(F)F)c1 | 82 |
| Cc1ccc(NN=C2C(=O)NN=C2c2c(O)c3ccccc3n(C)c2=O)cc1 | 218 |

The next lines start with the values.

| melting point [°C] | Structure (SMILES) |
| --- | --- |
| 79 to 80 | CC(=O)c1ccc(OCc2ccc(F)cc2)cc1 |
| -12 | CCCCCCCC1CCCC(=O)O1 (stereo not drawn) |
| 17 | CCCCCC#CCC(=O)O |
| 161 to 163 | CC(C)CCCC(C)C1CCC2(C)C1(C)CCC13OC21CCC1C(C)C(O)CCC13C (stereo not drawn) |
| 166 | COCCCn1c(C(=O)O)cc2c(=O)n(C)c(=O)n(C)c21 |
| 92 | O=C(/C=C/c1ccc(OCC2CO2)cc1)c1ccccc1 (stereo not drawn) |
| 280 | Oc1cc(C(F)(F)F)nc2cc(Cl)ccc12 |
| 192 to 194 | c1ccc(-c2nnc(NC3=NCCN3)s2)cc1 |
| 180 | CCCCC1=NC2(CCCC2)C(=O)N1Cc1ccc(-c2ccccc2-c2nnn[nH]2)cc1 |
| -10 | CC1=CCC(C(C)C)=CC1 |
| 52 | CCC1(O)c2ccccc2C1C (stereo not drawn) |
| 31 | Nc1c(Cl)cc(C(F)(F)F)cc1Br |
| 209 | CCOC(=O)C1=C(C)NC(=O)NC1c1cccc(OC)c1O (stereo not drawn) |
| 80 | CC(O)(c1ccccc1)c1ccccc1 |
| 107 to 109 | O=C(O)CCSCCCSCCC(=O)O |
| 194 to 195 | Cc1cc(C)n(N=Cc2ccccc2)c(=O)c1C#N |
| 154 to 155 | O=C(ON=C(c1cc2ccccc2o1)c1cc2ccccc2o1)c1ccccc1 |
| 138 to 140 | CC(C)(C)OC(=O)Nc1ccsc1 |
| 83 to 86 | N#CCN=C(c1ccccc1)c1ccccc1 |
| 114 to 115 | COC(=O)C1(C(=O)OC)C=C(OC)c2ccccc21 |
| 140 | CCOC(=O)Cc1cc(CC(=O)OCC)c(NC(=O)OCC)cc1NC(=O)OCC |
| 70 to 71 | CC(=O)N(C)c1ccc(N)cc1 |
| 171 | Cc1ccc(C(=O)/C=C/c2ccc(-c3ccc(Cl)cc3)o2)o1 |
| 152 | Cc1c(C)c(C)c(N)c(C)c1C |
| 64 | COc1cccc(Br)c1O |

| melting point [°C] | Structure (SMILES) |
| --- | --- |
| 117 to 122 | CC1C(=O)NC(=O)C1(C)C (stereo not drawn) |
| 230 to 232 | CC(=O)c1cc(C#N)c(=O)[nH]c1C |
| 8 | COCC(=O)c1ccccc1 |
| 106 | Cc1c(Br)sc2ccc(Cl)cc12 |
| 118 | O=C(O)CCCCc1ccc(O)cc1 |
| 212 | O=C1NN=C(C(F)(F)F)C1=NNc1ccc(Br)cc1 |
| 98 to 99 | COc1ccccc1-c1ccc(C=CC(=O)c2ccccc2)o1 |
| 156 to 158 | O=C(O)[C@@H]1CSCN1C(=O)OCC1c2ccccc2-c2ccccc21 |
| -60 | CCCCCC(=O)OCC(COC(=O)CCCCC)OC(=O)CCCCC |
| 98 to 101 | O=C(O)c1cccc(N2CCCCC2)n1 |
| 102 | c1ccc(OCc2nnc3n2NC(c2ccco2)S3)cc1 (stereo not drawn) |
| 243 to 245 | O=C(O)c1ccc(-c2ccccc2)nc1 |
| 148 to 150 | O=S(=O)(Cl)c1cccc2nsnc12 |
| 235 to 237 | CC(=O)Nc1ccccc1CCCCc1ccccc1NC(C)=O |
| 84 to 88 | CC(=O)Nc1cccc(N)c1 |
| 183 to 185 | CC(C)(C)c1cc(C(=O)NN)n(Cc2ccc(F)cc2)n1 |
| 153 to 157 | NNC(=O)COc1ccc(Cl)cc1Cl |
| 165 to 166 | O=c1on(-c2ccccc2)c(Br)c1-c1ccccc1 |
| 129 | COc1ccc(CN2CCc3ccccc3C2)cc1O |
| 149 | CCc1ccc2cc(O)c(O)cc2c1 |
| 119 to 124 | Oc1ccc(-n2cccc2)cc1 |
| 84 to 86 | COc1cc(I)c(OC)cc1C |
| 252 | Cc1ccccc1N1C(=O)c2cc(S(N)(=O)=O)c(Cl)cc2NC1C (stereo not drawn) |
| 161 | O=[N+]([O-])c1ccc(C(Br)C(Br)c2cccc3ccccc23)c([N+](=O)[O-])c1 (stereo not drawn) |

Source: a melting point compilation (Tetko et al.)
